Measurements from patent publication US12522612B2, “PDE4 inhibitors, pharmaceutical compositions, and therapeutic applications” (BioTheryX, Inc., priority 2019, dated 2026).

Tested on: TNF-α
Experiment: Cell-based TNF-α inhibition assay in LPS-induced PBMCs (Meso Scale)
Conditions: PBMC, PBMCs pretreated 1 h, LPS 100 ng/mL 18-24 h, relative to stimulated DMSO control; for inhibition at 0.1 µM: compound concentration 0.1 μM; for inhibition at 1 µM: compound concentration 1 μM
Protocol: Frozen primary blood mononuclear cells (PBMCs) were quick thawed, washed once with RPMI 1640 media supplemented with 10% fetal bovine serum, 1% penicillin, and 1% streptomycin, and plated in a 96 well plate at 200,000 cells per well. The cells were pretreated with DMSO only as a control or a compound for 1 h, and then induced with LPS (lipopolysaccharide) (100 ng/mL) for 18-24 h. The supernatant was analyzed for TNF-α using the Meso Scale assay. Compound activity was determined as a percentage of the stimulated DMSO control. The results are summarized in Table 1, where A represents a percent inhibition value ≥60%; B represents a percent inhibition value <60% and ≥40%; C represents a percent inhibition value <40% and >20%; and D represents a single percent inhibition value <20%.

Compound	inhibition at 0.1 µM	inhibition at 1 µM
CCOc1cc([C@@H](CS(C)(=O)=O)N2Cc3c(csc3NC(=O)C(F)(F)F)C2=O)ccc1OC [Compound A1, (S)—N-(5-(1-(3-ethoxy-4-methoxyphenyl)-2-(methylsulfonyl)ethyl)-4-oxo-5,6-dihydro-4H-thieno[3,4-c]pyrrol-1-yl)-2,2,2-trifluoroacetamide]	< 20%	40 to 60%
CCOc1cc([C@@H](CS(C)(=O)=O)N2Cc3c(NC(=O)COC)csc3C2=O)ccc1OC [Compound A2, (S)—N-(5-(1-(3-ethoxy-4-methoxyphenyl)-2-(methylsulfonyl)ethyl)-6-oxo-5,6-dihydro-4H-thieno[2,3-c]pyrrol-3-yl)-2-methoxyacetamide]	20 to 40%	20 to 40%
CCOc1cc([C@@H](CS(C)(=O)=O)N2Cc3c(NC(=O)C4CC4)csc3C2=O)ccc1OC [Compound A3, (S)—N-(5-(1-(3-ethoxy-4-methoxyphenyl)-2-(methylsulfonyl)ethyl)-6-oxo-5,6-dihydro-4H-thieno[2,3-c]pyrrol-3-yl)cyclopropanecarboxamide]	20 to 40%	20 to 40%
COc1ccc([C@@H](CS(C)(=O)=O)N2C(=O)c3csc(NC(C)=O)c3C2=O)cc1OC1CC1 [Compound A4, (S)—N-(5-(1-(3-cyclopropoxy-4-methoxyphenyl)-2-(methylsulfonyl)ethyl)-4,6-dioxo-5,6-dihydro-4H-thieno[3,4-c]pyrrol-1-yl)acetamide]	40 to 60%	≥ 60%
COc1ccc([C@H](CS(C)(=O)=O)N2C(=O)c3csc(NC(C)=O)c3C2=O)cc1OC1CC1 [Compound A5, (R)—N-(5-(1-(3-cyclopropoxy-4-methoxyphenyl)-2-(methylsulfonyl)ethyl)-4,6-dioxo-5,6-dihydro-4H-thieno[3,4-c]pyrrol-1-yl)acetamide]	< 20%	20 to 40%
CCOc1cc([C@@H](CS(=O)(=O)C2CC2)N2C(=O)c3csc(NC(C)=O)c3C2=O)ccc1OC [Compound A6, (S)—N-(5-(2-(cyclopropylsulfonyl)-1-(3-ethoxy-4-methoxyphenyl)ethyl)-4,6-dioxo-5,6-dihydro-4H-thieno[3,4-c]pyrrol-1-yl)acetamide]	< 20%	20 to 40%
CCOc1cc([C@@H](CS(=O)(=O)C2CC2)N2C(=O)c3csc(NC(=O)C(F)(F)F)c3C2=O)ccc1OC [Compound A7, (S)—N-(5-(2-(cyclopropylsulfonyl)-1-(3-ethoxy-4-methoxyphenyl)ethyl)-4,6-dioxo-5,6-dihydro-4H-thieno[3,4-c]pyrrol-1-yl)-2,2,2-trifluoroacetamide]	< 20%	< 20%
CCOc1cc([C@H](CS(=O)(=O)C2CC2)N2C(=O)c3csc(NC(=O)C(F)(F)F)c3C2=O)ccc1OC [Compound A8, (R)—N-(5-(2-(cyclopropylsulfonyl)-1-(3-ethoxy-4-methoxyphenyl)ethyl)-4,6-dioxo-5,6-dihydro-4H-thieno[3,4-c]pyrrol-1-yl)-2,2,2-trifluoroacetamide]	< 20%	< 20%
CCOc1cc([C@H](CS(=O)(=O)C2CC2)N2C(=O)c3csc(NC(=O)COC)c3C2=O)ccc1OC [Compound A9, (R)—N-(5-(2-(cyclopropylsulfonyl)-1-(3-ethoxy-4-methoxyphenyl)ethyl)-4,6-dioxo-5,6-dihydro-4H-thieno[3,4-c]pyrrol-1-yl)-2-methoxyacetamide]	40 to 60%	≥ 60%
CCOc1cc([C@H](CS(=O)(=O)C2CC2)N2C(=O)c3csc(NC(C)=O)c3C2=O)ccc1OC [Compound A10, (R)—N-(5-(2-(cyclopropylsulfonyl)-1-(3-ethoxy-4-methoxyphenyl)ethyl)-4,6-dioxo-5,6-dihydro-4H-thieno[3,4-c]pyrrol-1-yl)acetamide]	< 20%	≥ 60%
CCOc1cc([C@@H](CS(=O)(=O)C2CC2)N2C(=O)c3csc(NC(=O)COC)c3C2=O)ccc1OC [Compound A11, (S)—N-(5-(2-(cyclopropylsulfonyl)-1-(3-ethoxy-4-methoxyphenyl)ethyl)-4,6-dioxo-5,6-dihydro-4H-thieno[3,4-c]pyrrol-1-yl)-2-methoxyacetamide]	20 to 40%	≥ 60%
CCOc1cc([C@@H](CS(C)(=O)=O)N2C(=O)c3cc(CCCCC(=O)N4CCC(C#Cc5cccc6c5CN(C5CCC(=O)NC5=O)C6=O)CC4)cc(NC(C)=O)c3C2=O)ccc1OC (stereo partly drawn) [Compound B16, N-(6-(5-(4-((2-(2,6-dioxopiperidin-3-yl)-1-oxoisoindolin-4-yl)ethynyl)piperidin-1-yl)-5-oxopentyl)-2-((S)-1-(3-ethoxy-4-methoxyphenyl)-2-(methylsulfonyl)ethyl)-1,3-dioxoisoindolin-4-yl)acetamide]	≥ 60%	≥ 60%
CCOc1cc([C@@H](CS(C)(=O)=O)N2C(=O)c3cccc(NC(=O)CCOCCOCCOCCNc4cccc5c4C(=O)N(C4CCC(=O)NC4=O)C5=O)c3C2=O)ccc1OC (stereo partly drawn) [Compound B43, 3-(2-(2-(2-((2-(2,6-Dioxopiperidin-3-yl)-1,3-dioxoisoindolin-4-yl)amino)ethoxy)-ethoxy)ethoxy)-N-(2-((S)-1-(3-ethoxy-4-methoxyphenyl)-2-(methylsulfonyl)ethyl)-1,3-dioxoisoindolin-4-yl)propanamide]	≥ 60%	≥ 60%
CCOc1cc([C@@H](CS(C)(=O)=O)N2C(=O)c3cccc(NC(=O)CCCCCCNCc4ccc(OCc5scc6c5CN([C@H]5CCC(=O)NC5=O)C6=O)cc4)c3C2=O)ccc1OC [Compound B44, 7-((4-((5-((S)-2,6-Dioxopiperidin-3-yl)-4-oxo-5,6-dihydro-4H-thieno[3,4-c]pyrrol-1-yl)methoxy)benzyl)amino)-N-(2-((S)-1-(3-ethoxy-4-methoxyphenyl)-2-(methylsulfonyl)ethyl)-1,3-dioxoisoindolin-4-yl)heptanamide]	–	≥ 60%
O=C1CCC(N2Cc3c(cc(F)cc3C3CCN(CCCCCCCCCOc4cc(C(=O)Nc5c(Cl)cncc5Cl)ccc4OC(F)F)CC3)C2=O)C(=O)N1 (stereo not drawn) [Compound B45, N-(3,5-Dichloropyridin-4-yl)-4-(difluoromethoxy)-3-((9-(4-(2-(2,6-dioxopiperidin-3-yl)-6-fluoro-1-oxoisoindolin-4-yl)piperidin-1-yl)nonyl)oxy)benzamide]	–	≥ 60%
O=C1CCC(N2Cc3c(cc(F)cc3C3CCN(CCCCCOc4cc(C(=O)Nc5c(Cl)cncc5Cl)ccc4OC(F)F)CC3)C2=O)C(=O)N1 (stereo not drawn) [Compound B46, N-(3,5-Dichloropyridin-4-yl)-4-(difluoromethoxy)-3-((5-(4-(2-(2,6-dioxopiperidin-3-yl)-6-fluoro-1-oxoisoindolin-4-yl)piperidin-1-yl)pentyl)oxy)benzamide]	–	≥ 60%
CCOc1cc([C@@H](CS(C)(=O)=O)N2C(=O)c3cc(C#CCCCCCN4CCC(c5cc(F)cc6c5CN(C5CCC(=O)NC5=O)C6=O)CC4)cc(NC(C)=O)c3C2=O)ccc1OC (stereo partly drawn) [Compound B47, N-(6-(7-(4-(2-(2,6-dioxopiperidin-3-yl)-6-fluoro-1-oxoisoindolin-4-yl)piperidin-1-yl)hept-1-yn-1-yl)-2-((S)-1-(3-ethoxy-4-methoxyphenyl)-2-(methylsulfonyl)ethyl)-1,3-dioxoisoindolin-4-yl)acetamide]	–	≥ 60%
